Results taken from PubChem BioAssay AID1918944 (Molecular Pharmacology Branch, DTP, NCI, 2023).
“And” between values parts separate entries of the source, which are not always exact repeats. Equal entries are not always repeated.

System: 786-0 complex spheroid viability
Assay: Anticancer human tumor 786-0 cell line growth inhibition;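 also: spheroids exposed to agents for seven days before readout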
Conditions: for viability, T/C: stronger effect = lower value
Method in brief: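 Drug combinations with the LSD1 inhibitor iadademstat tested on tumor cells co-cultured as spheroids with endothelial cells and mesenchymal stem cells. Concentrations descended in half-log increments from clinical Cmax or 10 microM.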

[1] = curve of first compound, second compound 0.1 µM
[2] = curve of first compound, second compound 0.316 µM
[3] = curve of first compound, second compound 1 µM
[4] = curve of first compound, second compound 3.16 µM
[5] = curve of first compound, second compound 10 µM
[6] = second compound 0.1 µM, first compound 0.0316 µM
[7] = second compound 0.1 µM, first compound 0.1 µM
[8] = second compound 0.1 µM, first compound 0.316 µM
[9] = second compound 0.1 µM, first compound 1 µM
[10] = second compound 0.1 µM, first compound 3.16 µM
[11] = second compound 0.1 µM, first compound 10 µM
[12] = second compound 0.316 µM, first compound 0.0316 µM
[13] = second compound 0.316 µM, first compound 0.1 µM
[14] = second compound 0.316 µM, first compound 0.316 µM
[15] = second compound 0.316 µM, first compound 1 µM
[16] = second compound 0.316 µM, first compound 3.16 µM
[17] = second compound 0.316 µM, first compound 10 µM
[18] = second compound 1 µM, first compound 0.0316 µM
[19] = second compound 1 µM, first compound 0.1 µM
[20] = second compound 1 µM, first compound 0.316 µM
[21] = second compound 1 µM, first compound 1 µM
[22] = second compound 1 µM, first compound 3.16 µM
[23] = second compound 1 µM, first compound 10 µM
[24] = second compound 3.16 µM, first compound 0.0316 µM
[25] = second compound 3.16 µM, first compound 0.1 µM
[26] = second compound 3.16 µM, first compound 0.316 µM
[27] = second compound 3.16 µM, first compound 1 µM
[28] = second compound 3.16 µM, first compound 3.16 µM
[29] = second compound 3.16 µM, first compound 10 µM
[30] = second compound 10 µM, first compound 0.0316 µM
[31] = second compound 10 µM, first compound 0.1 µM
[32] = second compound 10 µM, first compound 0.316 µM
[33] = second compound 10 µM, first compound 1 µM
[34] = second compound 10 µM, first compound 3.16 µM
[35] = second compound 10 µM, first compound 10 µM

Structure (SMILES) | IC50 [1] [µM] | IC50 [2] [µM] | IC50 [3] [µM] | IC50 [4] [µM] | IC50 [5] [µM] | viability, T/C [6] [%] | viability, T/C [7] [%] | viability, T/C [8] [%] | viability, T/C [9] [%] | viability, T/C [10] [%] | viability, T/C [11] [%] | viability, T/C [12] [%] | viability, T/C [13] [%] | viability, T/C [14] [%] | viability, T/C [15] [%] | viability, T/C [16] [%] | viability, T/C [17] [%] | viability, T/C [18] [%] | viability, T/C [19] [%] | viability, T/C [20] [%] | further results
CC(C)c1c(-c2ccccc2)nc2c(C#N)c[nH]n2c1=O + NC1CCC(NC2CC2c2ccccc2)CC1 | > 10 | > 10 | > 10 | > 10 | > 10 | 110 | 111 | 119 | 118 | 116 | 112 | 121 | 118 | 118 | 116 | 115 | 116 | 114 | 113 | 113 | viability, T/C [21]: 125%; viability, T/C [22]: 112%; viability, T/C [23]: 113%; viability, T/C [24]: 111%; viability, T/C [25]: 107%; viability, T/C [26]: 108%; viability, T/C [27]: 100%; viability, T/C [28]: 107%; viability, T/C [29]: 103%; viability, T/C [30]: 92.7%; viability, T/C [31]: 95.3%; viability, T/C [32]: 95.2%; viability, T/C [33]: 98.8%; viability, T/C [34]: 88.1%; viability, T/C [35]: 84.9%
Nc1ccccc1NC(=O)c1ccc(CNC(=O)OCc2cccnc2)cc1 |  |  |  |  |  |  |  |  |  |  |  |  |  |  |  |  |  |  |  |  | viability, T/C (compound 0.00949 µM): 98.3% and 104%; viability, T/C (compound 0.03 µM): 103% and 113%; viability, T/C (compound 0.0949 µM): 102% and 108%; viability, T/C (compound 0.3 µM): 93.9% and 93.5%; viability, T/C (compound 0.949 µM): 68% and 73.5%; viability, T/C (compound 3 µM): 14.8% and 23%; IC50 (curve of compound): 1.4 µM and 1.61 µM
COc1ccc([C@@H](O)c2cc(-c3ncnc4cc(N5CCOCC5)ccc34)c(F)cc2Cl)nn1 + NC1CC1c1ccc(-c2cccc(O)c2)cc1 | 3.59 | 4.96 | 3.76 | 2.79 | 2.2 | 98.2 | 100 | 96.2 | 79.2 | 52 | 37 | 108 | 110 | 102 | 86.9 | 56.2 | 40 | 101 | 92.9 | 93 | viability, T/C [21]: 80%; viability, T/C [22]: 51.7%; viability, T/C [23]: 38%; viability, T/C [24]: 90.1%; viability, T/C [25]: 93.7%; viability, T/C [26]: 88.2%; viability, T/C [27]: 78.1%; viability, T/C [28]: 46.3%; viability, T/C [29]: 38.4%; viability, T/C [30]: 92.3%; viability, T/C [31]: 84.5%; viability, T/C [32]: 81.3%; viability, T/C [33]: 65.7%; viability, T/C [34]: 41.8%; viability, T/C [35]: 34.7%
